Laboratory results: paper PMC4260654 (Cell host & microbe, 2014)

Assays:
[1] = biological target: T1, CLOSPO_02083 (Clostridium sporogenes, UniProt J7SZ64); assay: progress curves of tryptamine production by HPLC, kobs vs [I]; type: biochemical; conditions: read-out: Ki
T1 sequence (J7SZ64 1-417): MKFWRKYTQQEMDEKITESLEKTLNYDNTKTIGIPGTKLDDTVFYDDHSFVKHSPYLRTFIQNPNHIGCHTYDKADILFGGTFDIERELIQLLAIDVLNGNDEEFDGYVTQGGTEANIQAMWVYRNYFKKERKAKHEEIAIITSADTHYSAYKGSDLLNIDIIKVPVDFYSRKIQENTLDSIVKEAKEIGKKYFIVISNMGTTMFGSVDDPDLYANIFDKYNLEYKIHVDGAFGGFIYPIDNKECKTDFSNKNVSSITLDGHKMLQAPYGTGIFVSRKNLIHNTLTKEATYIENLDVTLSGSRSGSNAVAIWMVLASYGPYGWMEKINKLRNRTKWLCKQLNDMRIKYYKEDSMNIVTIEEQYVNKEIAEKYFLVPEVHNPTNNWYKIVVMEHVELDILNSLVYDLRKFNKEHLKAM

[2] = biological target: RUMGNA_01526 (Mediterraneibacter gnavus, UniProt A7B1V0); assay: X-ray crystal structure at […] Å; type: biochemical; conditions: read-out: Ki

NC(CF)(Cc1c[nH]c2ccccc12)C(=O)O (stereo in doubt) [I, (S)-α-FMT]
KI (inactivation) [1]: 200 nM
KI (inactivation) [2]: 178 µM
